The text below walks through data of patent US12472225B2 (priority 2019, dated 2025).

Where a SMILES comes first, the peptide text is derived from it. Bridges are numbered along the chain shown (N, C = ends). [ ]: non-standard residue; d: D form. The star is where a group is joined. Octanoyl = CCCCCCCC(=O)*; Dab = NCC[C@H](N)C(=O)O; Abu = CC[C@H](N)C(=O)O

The target in series [1] is T1, binding of Shiga toxin 2 to human neutrophils expressing the TLR4 (Escherichia phage 933W, UniProt P09385). In words: cell-based. Type of series: cell-based.
The test system of series [2] is neutrophil/platelet aggregates in human blood. Type of series: cell-based.
Series [3] concerns monocyte/platelet aggregates in human blood. Type of series: cell-based.
The target of series [4] is T1, binding of Shiga toxin 2 to human neutrophils expressing the TLR4. The settings on record: cited from earlier work.
Series [5] concerns Raji cells (Burkitt lymphoma). The conditions noted are these: cited from earlier work.
A further series deals with human renal tubule cells. The conditions noted are these: cited from earlier work.
Another series concerns the target Shiga toxin 2 (Escherichia phage 933W, UniProt P09385). Description: biochemical. Type of series: binding.
Series [6] has as its system Raji cells (Burkitt lymphoma). Type of series: cell-based, human.

T1 sequence (P09385 whole entry, looked up): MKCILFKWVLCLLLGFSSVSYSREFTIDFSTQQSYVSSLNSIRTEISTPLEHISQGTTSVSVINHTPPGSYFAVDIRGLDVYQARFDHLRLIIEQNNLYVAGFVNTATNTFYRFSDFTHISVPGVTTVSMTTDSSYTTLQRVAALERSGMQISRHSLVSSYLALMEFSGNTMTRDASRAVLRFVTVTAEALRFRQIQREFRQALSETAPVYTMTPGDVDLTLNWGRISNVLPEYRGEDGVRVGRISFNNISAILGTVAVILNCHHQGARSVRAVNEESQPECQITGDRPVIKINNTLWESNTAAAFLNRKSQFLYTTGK
Chain of Shiga toxin 2 (P09385 whole entry, looked up): as above

For the molecule “Ac-Thr-DSer-cy[Dab-Dab-DPhe-Leu-Dab-Dab-Thr-] [NAB741, reference compound]”, in series [1], the “inhibition of the binding of Shiga toxin 2 to the neutrophil (in words)” value (shortened to “inhibition of the binding … (in words)”) is “scarcely effective”.
On to “MOA/MHA-Dab-Thr-Dab-cy[Dab-Dab-DPhe-Leu-Dab-Dab-Thr-] [polymyxin B]”, for which, in series [2], the “effect on formation of neutrophil/platelet aggregates (in words)” value was “not effective”. Moreover, in series [3], the “effect on formation of monocyte/platelet aggregates (in words)” value is reported as “not effective”. Besides, the “IC50 of binding of Shiga toxin 2 to neutrophils” value in series [4] was 3.5 µg/mL. Also, in series [5], the “protection of Raji cells from Shiga toxin 2 intoxication” value is “no protective effect”. For the same molecule, in the series on human renal tubule cells, the “cytotoxicity IC50” value is 18 µg/mL.
Take “OA-Thr-Abu-cy[Dab-Dab-DPhe-Leu-Dab-Dab-Thr-] [NAB7061, reference compound]”: the “inhibition of the binding … (in words)” value in series [1] is recorded as “scarcely effective”.
Regarding `CCCCCCCC(=O)N[C@@H](CCN)C(=O)N[C@H](C(=O)N[C@@H](C(=O)N[C@H]1CCNC(=O)[C@H]([C@@H](C)O)NC(=O)[C@H](CCN)NC(=O)[C@H](CC)NC(=O)[C@H](CC(C)C)NC(=O)[C@@H](Cc2ccccc2)NC(=O)[C@H](CCN)NC1=O)[C@H](C)O)[C@@H](C)O` [NAB815, OA-Dab-Thr-DThr-cy[Dab-Dab-DPhe-Leu-Abu-Dab-Thr-]] (Octanoyl-[Dab]T[dT][Dab][Dab][dF]L[Abu][Dab]T; lactam 4-C), the “inhibition of the binding … (in words)” value in series [1] is reported as “strong inhibitor”. The same molecule showed an IC50 in series [1] (IC50 (concentration determining a 50% inhibition) of binding of Shiga toxin 2 to neutrophils) of 48.5 nM. Further, in series [1] (concentration inhibiting binding of Shiga toxin 2 to neutrophils by 50%), the IC50 amounted to 43 nM. Also, on Shiga toxin 2, the affinity, expressed as Kd, was 5 nM and the “maximum reduction of the fluorescence emission” value is “approximately 10%”. The “protection of Raji cells from Shiga toxin 2 intoxication (protein synthesis)” value in series [6] is given as “no protective effect”. In series [2], the “inhibition of formation of neutrophil/platelet aggregates” value is “more than 70%”. For the same molecule, the “inhibition of formation of monocyte/platelet aggregates” value in series [3] is on record as “more than 70%”.

For orientation: IC50 means the concentration at which inhibition is half-maximal. The low end stands for higher potency, the high end for lower potency. One may read the Kd as a measure of binding affinity in units of concentration. Read a high Kd as a looser complex.
